Results taken from US12534496B2, “Polymorphic forms of Cyclo (-His-Pro) and methods of use to treat kidney disease” (NovMetaPharma Co., Ltd., priority 2018, dated 2026).
Entries after “also recorded” stand apart in the source; their conditions may differ.

Assays:
Format in all cases: physicochemical
[1] = Variable temperature dynamic vapour sorption (VT-DVS) at 40, 50, 60 °C; conditions: for Post-VT-DVS XRPD form: after cycles at 40, 50 and 60 °C
Description: Approximately, 10-20 mg of sample was placed into a mesh vapor sorption balance pan and loaded into a DVS Advantage dynamic vapor sorption balance by Surface Measurement Systems. The sample was subjected to a ramping profile from 40-90% relative humidity (RH) at 10% increments, maintaining the sample at each step until a stable weight had been achieved (dm/dt 0.004%, minimum step length 30 minutes, maximum step length 500 minutes) at 40° C. After completion of the sorption cycle, the sample was dried using the same procedure to 0% RH and then a second sorption cycle back to 40% RH. The weight change during the sorption/desorption cycles were plotted, allowing for the hygroscopic nature of the sample to be determined. The experiment was repeated at 50° C. and finally at 60° C. XRPD analysis was then carried out on any solid retained.

[2] = Solubility of CHP hydrate (Pattern 2) in water/acetone
[3] = Dry stability at 35, 40, 50 and 65 °C (XRPD)
Description: Drying stability was carried out at 35° C., 40° C., 50° C., and 65° C. respectively.

[4] = Drug substance stability study, 25±2 °C/60±5% RH (appearance, assay, impurities, chiral, water content, XRPD); conditions: 25° C./60% RH (table title)
Description: Packaging: Sample at each individual time point was packaged into double Antistatic LDPE bags both secured with cable ties. The sample packed for the same storage condition were stored together within a fiber drum, and closed with metal lid. All packages were prepared in the same fashion and labeled.
Time zero will be the day samples are placed on station. Initial testing results were from the release testing as long as samples are put on station within 30 days of the release test date, otherwise, initial was repeated.
Study Requirements: Total 22.5 g sample (Total 21 g sample if initial test is not needed): • 1.5 g for initial test if needed; • 21 g sample will be divided into 14 parts, 1.5 g for each parts, sample for each part should be weighed into double Antistatic LDPE bags both secured with cable ties. The stability samples for each storage condition are stored together within a fiber drum, closed with metal lid, and then stored at 25±2° C./60+5% RH (9 bags) and 40±2° C./75±5% RH (5 bags), respectively. Sampling Time:
Samples stored not more than 6 months were pulled on schedule date or within 2 business days after the scheduled date. Samples stored more than 6 months were pulled within +2 business days of the scheduled date.
Stability samples stored for one month to one year, and greater than one year were analyzed and completed within 10 and 20 business days after the samples pulled out from stability chamber, respectively. If time zero testing was performed, it was analyzed within 10 business days after study initiation.

[5] = Vacuum oven heating of Pattern 2 (XRPD)
Description: i. 80° C. Heating of Pattern 2 • Ca. 2.2 g of pattern 2 material (prepared as per Section 5.6.1) was placed inside a vacuum oven set to 50° C.; • After 1 hour, a sample was taken and analyzed by XRPD; • Vial was returned to the vacuum oven and the temperature increased to 60° C.; • After 30 minutes, a sample was taken and analyzed by XRPD; • Vial was returned to the vacuum oven and the temperature increased to 80° C.; • After 18 hours at 80° C., a sample was taken and analyzed by XRPD; ii. Fast Rotary Evaporation in Ethanol/DCM • 1 g of received CHP pattern 1 was weighed in to a round bottom flask and dissolved in 40 mL of ethanol; • Once the solid had dissolved, 2 mL of dichloromethane was pipetted into the flask; • The flask was then attached to a rotary evaporator and fast evaporated at ambient temperature under vacuum; • A pale beige solid was recovered an analyzed by XRPD. 7. pH Solubility Assessment

VT-DVS water loss in equivalents ([1]; 40 °C, from 10 to 0% RH): 0.8 equiv water
VT-DVS weight loss ([1]; 40 °C, from 10 to 0% RH): approx. 5.8 wt %
VT-DVS weight loss ([1]; 40 °C, from 10 to 0% RH, listed as CHP Hydrate, Pattern 2): 5.8 wt %
VT-DVS weight loss ([1]; 40 °C, from 10 to 0% RH, listed as CHP pattern 2): approximately 5.8 wt %
VT-DVS water loss in equivalents ([1]; 50 °C, from 20 to 0% RH): 0.8 equiv water
VT-DVS weight loss ([1]; 50 °C, from 20 to 0% RH): approximately 6.1 wt %
VT-DVS weight loss ([1]; 50 °C, from 20 to 0% RH, listed as CHP Hydrate, Pattern 2): 6.1 wt %
VT-DVS weight loss ([1]; 50 °C, from 20 to 0% RH, listed as CHP pattern 2): approx. 6.1 wt %
VT-DVS water loss in equivalents ([1]; 60 °C, from 20 to 0% RH): 1.0 equiv water
VT-DVS weight loss ([1]; 60 °C, from 20 to 0% RH): approximately 7 wt %
VT-DVS weight loss ([1]; 60 °C, from 20 to 0% RH, listed as CHP Hydrate, Pattern 2): 7 wt %
VT-DVS weight loss ([1]; 60 °C, from 20 to 0% RH, listed as CHP pattern 2): approx. 7 wt %
RH below which dehydration starts ([1]; VT-DVS at 40 °C): below 10 % RH
RH below which dehydration starts ([1]; VT-DVS at 50 °C): below 20 % RH
RH below which dehydration starts ([1]; VT-DVS at 60 °C): below 20 % RH
Post-VT-DVS XRPD form [1]: mixture of Patterns 1 and 2
solubility ([2]; water/acetone 0/10 (v/v), 50 °C, organic solvent or mixture): 14 mg/mL
solubility ([2]; water/acetone 0.5/9.5 (v/v), 50 °C, organic solvent or mixture): 49 mg/mL
solubility ([2]; water/acetone 1/9 (v/v), 5 °C, organic solvent or mixture): 48 mg/mL
solubility ([2]; water/acetone 1/9 (v/v), 50 °C, organic solvent or mixture): 159 mg/mL
solubility ([2]; water/acetone 2/8 (v/v), 5 °C, organic solvent or mixture): 110 mg/mL
solubility ([2]; water/acetone 4/6 (v/v), 5 °C, organic solvent or mixture): 179 mg/mL
solubility ([2]; water/acetone 6/4 (v/v), 5 °C, aqueous with cosolvent or surfactant or cyclodextrin): 206 mg/mL
solubility ([2]; water/acetone 8/2 (v/v), 5 °C, aqueous with cosolvent or surfactant or cyclodextrin): > 200 mg/mL
solubility ([2]; water/acetone 9/1 (v/v), 5 °C, aqueous with cosolvent or surfactant or cyclodextrin): 215 mg/mL
solubility ([2]; water/acetone, 5 °C, organic solvent or mixture, water/acetone 0/10 (v/v)): 17 mg/mL
solubility ([2]; water/acetone, 5 °C, organic solvent or mixture, water/acetone 0.5/9.5 (v/v)): 19 mg/mL
solubility ([2]; water/acetone, 50 °C, aqueous with cosolvent or surfactant or cyclodextrin, water/acetone 6/4 (v/v)): > 200 mg/mL
solubility ([2]; water/acetone, 50 °C, aqueous with cosolvent or surfactant or cyclodextrin, water/acetone 8/2 (v/v)): > 200 mg/mL
solubility ([2]; water/acetone, 50 °C, aqueous with cosolvent or surfactant or cyclodextrin, water/acetone 9/1 (v/v)): > 200 mg/mL
solubility ([2]; water/acetone, 50 °C, organic solvent or mixture, water/acetone 2/8 (v/v)): > 200 mg/mL
solubility ([2]; water/acetone, 50 °C, organic solvent or mixture, water/acetone 4/6 (v/v)): > 200 mg/mL
Drying stability (form) ([3]; drying at 35-65 °C, up to 4 days): stable up to 40 °C for at least 4 days
XRPD ([3]; drying at 35 °C, 1 d): Pattern 2
XRPD ([3]; drying at 35 °C, 4 d): Pattern 2
XRPD ([3]; drying at 40 °C, 1 d): Pattern 2
XRPD ([3]; drying at 40 °C, 2 d): Pattern 2
XRPD ([3]; drying at 40 °C, 3 d): Pattern 2
XRPD ([3]; drying at 40 °C, 4 d): Pattern 2
XRPD ([3]; drying at 50 °C, 1 d): Pattern 2
XRPD ([3]; drying at 50 °C, 2 d): Pattern 2
XRPD ([3]; drying at 50 °C, 4 d): Pattern 1
XRPD ([3]; drying at 65 °C, 1 d): Pattern 2
XRPD ([3]; drying at 65 °C, 2 d): Pattern 1
Drying stability (form) ([3]; lab oven under −0.09 MPa): stable at below 40 °C
Appearance ([4]; 3M): Off-white powder
Assay by HPLC ([4]; 3M): 103.3%
Chiral, HPLC: chiral purity ([4]; 3M): 100.0%
Impurities, HPLC: H-His-OH ([4]; 3M): 0.08%
Impurities, HPLC: each other individual (unspecified) impurity ([4]; 3M): individual <0.05%
Water content (KF) ([4]; 3M): 7.1%
Appearance ([4]; 6M): Off-white powder
Assay by HPLC ([4]; 6M): 103.4%
Chiral, HPLC: chiral purity ([4]; 6M): 100.0%
Impurities, HPLC: H-His-OH ([4]; 6M): 0.08%
Impurities, HPLC: each other individual (unspecified) impurity ([4]; 6M): individual <0.05%
Water content (KF) ([4]; 6M): 7.2%
Appearance ([4]; Initial): Off-white powder
Assay by HPLC ([4]; Initial): 103.4%
Chiral, HPLC: chiral purity ([4]; Initial): 100.0%
Impurities, HPLC: H-His-OH ([4]; Initial): 0.07%
Impurities, HPLC: each other individual (unspecified) impurity ([4]; Initial): individual <0.05%
Water content (KF) ([4]; Initial): 7.4%
XRPD ([4]; Initial, vs reference standard of Pattern 2 (PS03027-15-H)): Conform to reference
XRPD form after heating ([5]; oven 80 °C, additional 18 hours): mixture of Pattern 1 and 2
SMILES: O=C1N[C@@H](Cc2cnc[nH]2)C(=O)N2CCC[C@@H]12 [Pattern 2, Pyrrolo [1,2-a]pyrazine-1,4-dione, hexahydro-3-(1H-imidazol-5-ylmethyl)-, hydrate (1:1), (3S, 8aS)-]
Post-VT-DVS XRPD form ([1]; listed as CHP pattern 2): mixture of pattern 1 and pattern 2; also recorded: mixture of pattern 1 and 2
XRPD form after heating ([5]; vacuum oven 50 °C, 1 hour): predominately Pattern 2 with some Pattern 1 peaks
XRPD form after heating ([5]; vacuum oven, further 30 minutes (1.5 hour in total)): predominantly Pattern 2 with some Pattern 1 peaks
